Laboratory results as given in patent EP2711009A1, “Compounds for use in treating or preventing primary and metastatic breast and prostate cancer” (Institut Univ. de Ciència i Tecnologia, S.A., priority 2012, dated 2014).
Read-outs that look alike come from different tables or passages of the source.

Key:
Format in all cases: cell-based
[1] = test system: MDA-MB-231(SA) breast cancer cells; test: WST-1 tetrazolium dye proliferation assay, MDA-MB-231(SA); conditions: for inhibition at 1 µM: Homo sapiens, read-out: proliferation inhibitory effect compared with 0.1% DMSO vehicle control group; for proliferation inhibitory effect compared with Gemcitabine: relative to Gemcitabine (= 0), negative = less inhibition than Gemcitabine
Description: (§1) Determination of the ability of compound of formula (I) and combinations between compound of formula (I) and certain therapeutic compounds described herein to inhibit the proliferation of target cells was assayed in vitro against breast and prostate tumour cells.
(§2) MCF-7 and LNCaP cells were purchased from ATCC. MDA-MB-231(SA) cells were obtained from Professor Theresa Guise. PNT1A cells were purchased from ECACC. The cells were grown in a subconfluent condition to maintain a logarithmic growth phase. The cells were dislodged for passage using trypsin-EDTA.
(§3) The proliferation of the cell lines was evaluated by using the commercial WST-1 proliferation measurement reagent. Cells from exponentially growing cultures were plated on the 96 well plates at the appropriate seeding density in the optimal medium to give logarithmic growth over the course of the assay. The plates with MCF-7, MDA-MB-231(SA), PC3M and PNT1A cells were incubated 24h at 37°C in a humidified CO2 atmosphere to allow for recovery from trypsinization before adding of test and control compounds. 1mM stock solutions were prepared from test compounds in DMSO (dimethylsulfoxide) and stored at -20°C. Control compounds Ara-C and Gemcitabine stock solutions were prepared in sterile water. Each test and control compound was diluted twice the final concentration in appropriate media. Half of the final well volume of each dilution was added in six parallels to plates containing cells. Required volume of DMSO was added into the vehicle and control compound dilutions to achieve the final concentration of 0.1% DMSO in all control and test compound wells. The plates were returned to 37°C in a humified CO2 atmosphere and incubated for 5 days. WST-1 reagent (2-(4-Iodophenyl)-3-(4-nitrophenyl)-5-(2,4-disulfophenyl)-2H-tetrazolium) was added to each well according manufacturer's instructions and the plates were returned to 37°C in a humidified CO2 atmosphere for 2 hours. Following incubation the absorbance at a wavelength of 450nm was measured from each well using a multilabel counter. The absorbance at wavelength 450nm correlates linearly to number of viable cells in the well.
(§4) The means and standard deviations for parallel samples were calculated and plotted as a graph.

[2] = test system: PC3M prostate cancer cells; test: WST-1 tetrazolium dye proliferation assay, PC3M; conditions: for inhibition at 1 µM: Homo sapiens, PC-3M, 120 h, read-out: proliferation inhibitory effect compared with 0.1% DMSO vehicle control group; for proliferation inhibitory effect compared with Gemcitabine: relative to Gemcitabine (= 0)
Description: as §1, §2, §3, §4

[3] = test system: PNT1A immortalized normal prostate cells; test: WST-1 tetrazolium dye proliferation assay, PNT1A normal cells; conditions: Homo sapiens, 120 h, read-out: proliferation inhibitory effect compared with 0.1% DMSO vehicle control group
Description: as §1, §2, §3, §4

pancreatic cancer cells = test: Effect on pancreatic cancer cells (no method given); conditions: other type of cancer cells such as pancreatic cancer cells
[4] = PNT1A immortalized normal prostate cell line, 5 days incubation, mean±SD, concentration not given (primary screen 1 microM)

Row | SMILES | inhibition at 1 µM ([1]; MDA-MB-231, 120 h) | inhibition at 1 µM [2] | inhibition at 1 µM [3, 4] | proliferation inhibitory effect compared with Gemcitabine ([2]; PC3M) | proliferation inhibitory effect compared with Gemcitabine ([1]; MDA-MB-231(SA)) | inhibition at 1 µM ([3]; PNT1A) | effect on pancreatic cancer cells (pancreatic cancer cells) | inhibition at 1 µM ([1]; 120 h, MDA-MB-231(SA), 5 days incubation, mean±SD, concentration not given (primary screen 1 microM)) | inhibition at 1 µM ([2]; PC3M, 5 days incubation, mean±SD, concentration not given (primary screen 1 microM))
1 | Nc1ccn([C@@H]2O[C@H](CO)[C@@H](O)[C@@H]2O)c(=O)n1 [Ara-C] | 80.4 ± 2.5% | 72.6 ± 3.5% | 66.5 ± 1.8% |  |  |  |  |  | 
2 | Nc1ncnc2[nH]ncc12 [Compound A, 4-Aminopyrazolo[3,4-d]pyrimidine] |  |  |  | 70.1±2.7% |  |  |  |  | 
3 | CCSc1ncnc2c1ncn2[C@@H]1O[C@H](CO)[C@@H](O)[C@H]1O [Compound I, 6-(Ethylthio)inosine] | 93.4 ± 1.3% | 73.6 ± 5.5% |  | 26.6±15.4% | 11.7±18.0% | 26.2 ± 7.7% | no effect was detected |  | 
4 | O=c1[nH]c(=O)n([C@H]2C[C@H](O)[C@@H](CO)O2)cc1F [Floxuridine] |  |  | 88.3 ± 0.6% | 38.9±9.5% | -136.4±34.6% |  |  | 82.4 ± 2.6% | 78 ± 3.4%
5 | Nc1ccn([C@@H]2O[C@H](CO)[C@@H](O)C2(F)F)c(=O)n1 [Gemcitabine, 2',2'-difluorodeoxycytidine] | 93.3 ± 0.9% | 67.5 ± 7.2% | 98.8 ± 0.3% | 0% | 0% |  |  |  | 
